The values below come from patent US11040963B2 (priority 2017, dated 2021).

As a reminder, the IC50 is the midpoint of a concentration-inhibition curve. Lower therefore signals inhibition by little substance. The CC50 is the concentration at which the toxic effect on the cells reaches its halfway point.

Molecules are shown by their SMILES.

Series [1] deals with HA H1 A/California/07/09 (Influenza A virus (A/California/07/2009(H1N1)), UniProt C3W5X2). Put plainly: biochemical. As to conditions: Competition binding (AlphaLISA), pIC50 H1 A/California/07/09. On the technique in general: Alpha assays give light when donor and acceptor beads are brought close together.
Series [2] deals with H1N1 A/New Caledonia/20/99. Description: microbe, parasite or virus in culture. The class given is cell-based, influenza A virus. The note with it: for EC50: Influenza A virus, H1N1, MDCK, 96 h, read-out: Virus neutralization assay (VNA), pEC50 H1N1 A/New Caledonia/20/99 (converted).
The target of series [3] is HA H1 A/New Caledonia/20/99 (Influenza A virus (A/New Caledonia/20/1999(H1N1)), UniProt Q6WG00). Description: biochemical. The note with it: Competition binding (AlphaLISA), pIC50 H1 A/New Caledonia/20/99.
In series [4] the target is HA H5 A/Vietnam/1203/04 (Influenza A virus (A/Vietnam/1203/2004(H5N1)), UniProt Q5EP31). Put plainly: biochemical. As to conditions: Competition binding (AlphaLISA), pIC50 H5 A/Vietnam/1203/04.
Series [5] relates to H1N1 A/California/07/09. Description: microbe, parasite or virus in culture. The class given is cell-based, influenza A virus. The note with it: for EC50: Influenza A virus, H1N1, MDCK, 96 h, read-out: Virus neutralization assay (VNA), pEC50 H1N1 A/California/07/09 (converted).
Series [6] in a line: in vitro. The note with it: dog, Cytotoxicity (pCC50) MDCK.
The test system of series [7] is H5N1 A/Vietnam/1203/04. Put plainly: microbe, parasite or virus in culture. The class given is cell-based, influenza A virus. The note with it: 96 h, average of repeats; for EC50: Influenza A virus, H5N1, MDCK, read-out: Virus neutralization assay (VNA), pEC50 H5N1 A/Vietnam/1203/04, MDCK cells, 96 h, CPE by ATPlite (converted). (ATP-based viability assays read luminescence as a measure of living cells.)

For the compound `NCc1nnc(C(c2ccccc2)N2CCN(C(=O)c3cccc(-c4nc5cc(C(F)(F)F)ccc5o4)c3)CC2)o1` (stereo not shown) [Example 75], the IC50 is 200 nM in series [1], 158 nM in series [3] and 3980 nM in series [4]. For the same compound, the EC50 in series [2] is 631 nM; in series [5], 1000 nM; in series [7], 7.94 µM. The compound also showed a CC50 in series [6] of 10 µM.

Turning to `Cc1nnc([C@@H](c2ccccc2)N2CCN(C(=O)c3cccc(-c4cnc5ccccc5c4)c3)CC2)o1` [Example 76], the half-maximal inhibitory concentration (IC50) in series [1] is 200 nM; in series [3] it was 158 nM; in series [4] it was 10000 nM. Also, the EC50 in series [2] is 631 nM; in series [5] it was 1260 nM; in series [7] it was 31.6 µM. Also, half-maximal cytotoxicity in series [6] (CC50) was put at 15.8 µM.

`Cc1nnc([C@@H](c2ccccc2)N2CCN(C(=O)c3cccc(-c4nc5cccc(C)c5o4)c3)CC2)o1` [Example 77]: the IC50 in series [1] is 251 nM; in series [3], 200 nM; in series [4], 10000 nM. Further, the figures for the EC50 in series [2], in series [5] and in series [7] were 631 nM, 1260 nM and above 50.1 µM, respectively. Moreover, the cytotoxic concentration (CC50) in series [6] is 3.98 µM.

Turning to `COC(=O)C(c1ccccc1)N1CCN(C(=O)c2cccc(-c3nc4ccc(OC)cc4s3)n2)CC1` (stereo not shown) [Example 78], the IC50 was 631 nM in series [1], 316 nM in series [3] and 25100 nM in series [4]. Also, the values for the EC50 in series [2], in series [5] and in series [7] were 631 nM, 1260 nM and 50.1 µM, respectively. The compound also displayed a CC50 in series [6] above 50.1 µM.

Consider `COc1ccc2nc(-c3cccc(C(=O)N4CCN(C(c5ccccc5)c5nnco5)CC4)c3)sc2c1` (stereo not shown) [Example 79], for which the IC50 was 200 nM in series [1], 79.4 nM in series [3] and 1260 nM in series [4]. Besides, the EC50 in series [2] was 631 nM; in series [5], 1580 nM; in series [7] it was 12.6 µM. This compound had a half-maximal cytotoxic concentration (CC50) in series [6] above 50.1 µM.

With `COC(=O)C(c1ccccc1)N1CCN(C(=O)c2ccc(-c3nc4ccc(OC)cc4s3)o2)CC1` (stereo not shown) [Example 80], the 50% inhibitory concentration (IC50) in series [1] is 316 nM; in series [3], 251 nM; in series [4] it was 1000 nM. Moreover, the EC50 in series [2] is 631 nM; in series [5], 1580 nM; in series [7], above 50.1 µM. Further, the CC50 in series [6] is above 50.1 µM.

For the compound `COC(=O)C(c1ccccc1)N1CCN(C(=O)c2cccc(NC(=O)c3ccc(OC)cc3)c2)CC1` (stereo not shown) [Example 81], the IC50 was 200 nM in series [1], 126 nM in series [3] and 1260 nM in series [4]. The EC50 in series [2] was 631 nM; in series [5], 2000 nM; in series [7] it was 10 µM. Besides, in series [6], the CC50 is above 50.1 µM.

On to `COc1ccc2nc(-c3cccc(C(=O)N4CCN(C(CO)c5ccccc5)CC4)c3)sc2c1` (stereo not shown) [Example 82], for which the figures for the IC50 in series [1], in series [3] and in series [4] were 200 nM, 126 nM and 1000 nM, respectively. The EC50 was 631 nM in series [2], 2000 nM in series [5] and 12.6 µM in series [7]. The compound further had a CC50 in series [6] of 5.01 µM.

For the compound `COc1ccc2nc(-c3cccc(C(=O)N4CCN(C(C(N)=O)c5ccccc5)CC4)c3)sc2c1` (stereo not shown) [Example 84], the IC50 in series [1] was 316 nM; in series [3] it was 200 nM; in series [4], 1580 nM. Also, the EC50 in series [2] was 631 nM; in series [5], 2510 nM; in series [7], 31.6 µM. Also, the CC50 in series [6] is above 50.1 µM.

Regarding `Cc1nnc(C(c2ccccc2)N2CCN(C(=O)c3cccc(-c4nc5cc(C(F)(F)F)ccc5o4)c3)CC2)o1` (stereo not shown) [Example 86], the half-inhibitory concentration (IC50) in series [1] is 79.4 nM; in series [3], 126 nM; in series [4], 3160 nM. Besides, the EC50 in series [2] was 794 nM; in series [5], 631 nM; in series [7], 31.6 µM. The compound also showed a CC50 in series [6] of 31.6 µM.

As for `O=C(c1cccc(-c2nc3cc(C(F)(F)F)ccc3o2)c1)N1CCN(C(c2ccccc2)c2nnc(C3(O)CNC3)o2)CC1` (stereo not shown) [Example 87], the IC50 in series [1] was 63.1 nM; in series [3], 39.8 nM; in series [4], 2510 nM. Besides, the EC50 is 501 nM in series [2], 398 nM in series [5] and 39.8 µM in series [7]. In series [6], this compound gave a CC50 above 50.1 µM.

As to `COC(=O)C(c1ccccc1)N1C[C@H]2CC[C@@H](C1)N2C(=O)c1cccc(-c2nc3ccc(OC)cc3s2)c1` (stereo partly shown) [Example 88], the IC50 in series [1] is 200 nM; in series [3], 126 nM; in series [4] it was 501 nM. The EC50 is 794 nM in series [2], 1000 nM in series [5] and 12.6 µM in series [7]. The same compound had a CC50 in series [6] above 50.1 µM.

As to `COC(=O)C(c1ccccc1)N1CCN(C(=O)c2cccc(-c3ncc(C(=O)N4CCOCC4)s3)c2)CC1` (stereo not shown) [Example 89], the IC50 in series [1] was 79.4 nM; in series [3], 79.4 nM; in series [4], 1260 nM. The EC50 is 794 nM in series [2], 1260 nM in series [5] and 15.8 µM in series [7]. Moreover, the CC50 in series [6] is above 50.1 µM.

With `COc1ccc2nc(-c3cccc(C(=O)N4CCN(C(C(C)=O)c5ccccc5)CC4)c3)sc2c1` (stereo not shown) [Example 90], the IC50 in series [1] is 316 nM; in series [3] it was 158 nM; in series [4] it was 1000 nM. Also, the “Virus neutralization assay (VNA), pEC50 H1N1 A/New Caledonia/20/99” value in series [2] was 6.1. For the same compound, in series [5], the “Virus neutralization assay (VNA), pEC50 H1N1 A/California/07/09” value was determined as 5.8. In addition, in series [6], the midpoint of cytotoxicity, the CC50, lay at 31.6 µM. For the same compound, in series [7] (MDCK cells, CPE by ATPlite), the “Virus neutralization assay (VNA), pEC50 H5N1 A/Vietnam/1203/04” value was below 4.3.

Take `COc1ccc2nc(-c3cccc(C(=O)N4CCN(C(c5ccccc5)c5ccc[nH]c5=O)CC4)c3)sc2c1` (stereo not shown) [Example 91]: the IC50 in series [1] is 501 nM; in series [3] it was 316 nM; in series [4] it was 2510 nM. Besides, the EC50 in series [2] is 794 nM; in series [5], 1580 nM; in series [7], above 50.1 µM. Moreover, the CC50 in series [6] was 39.8 µM.

Turning to `O=C(c1cccc(-c2nc3cc(C(F)(F)F)ccc3o2)c1)N1CCN(C(c2ccccc2)c2nnc(C3CNC3)o2)CC1` (stereo not shown) [Example 92], the IC50 in series [1] was 126 nM; in series [3], 79.4 nM; in series [4] it was 3160 nM. Besides, the EC50 was 794 nM in series [2], 3160 nM in series [5] and 10 µM in series [7]. Besides, the CC50 in series [6] was 10 µM.

Consider `COc1ccc2nc(-c3cccc(C(=O)N4CCN(C(C(=O)NCCN)c5ccccc5)CC4)c3)sc2c1` (stereo not shown) [Example 93], for which the values for the IC50 in series [1], in series [3] and in series [4] were 79.4 nM, 63.1 nM and 631 nM, respectively. Further, the EC50 was 794 nM in series [2], 3980 nM in series [5] and 7.94 µM in series [7]. Also, the CC50 in series [6] is 15.8 µM.

On to `COC(=O)C(C)(c1ccccc1)N1CCN(C(=O)c2cccc(-c3nc4ccc(OC)cc4s3)c2)CC1` (stereo not shown) [Example 94], for which the values for the IC50 in series [1], in series [3] and in series [4] were 79.4 nM, 50.1 nM and 631 nM, respectively. Further, the EC50 in series [2] is 1000 nM; in series [5] it was 316 nM; in series [7], 7.94 µM. Moreover, half-maximal cytotoxicity in series [6] (CC50) was put at 2.51 µM.

For `Cc1nnc([C@@H](c2ccccc2)N2CCN(C(=O)c3cccc(-c4cc5ccccc5cn4)c3)CC2)o1` [Example 95], the IC50 in series [1] was 126 nM; in series [3], 158 nM; in series [4], 5010 nM. The EC50 in series [2] was 1000 nM; in series [5], 794 nM; in series [7], 31.6 µM. Moreover, in series [6], half-maximal cytotoxicity (CC50) was put at 39.8 µM.
